Where two headings read alike, the source gives them in different places.
Tests used:
H9c2 cardiomyocytes = assay: Transwell co-culture of MSC with H9c2 exposed to H2O2, specific DNA fragmentation in H9c2; type: cell-based, rattus norvegicus; details: vs naive MSC
Method: FIG. 7: Increased anti-apoptotic effects of PPARβ/δ-primed MSC on cardiomyocytes. (A) After 24 hours of MSC pharmacological preconditioning using PPARβ/δ agonist, cells were co-cultured using transwells (upper chamber) with H9c2 (lower chamber). Both cultures were exposed to 4 hours of 350 μM of H2O2 in minimal medium (serum deprivation). At the end of the protocol, specific DNA fragmentation was quantified in H9c2 cells and values were compared with those obtained for co-cultures with naive MSC or MSC pre-treated with PPARβ/δ antagonists (GSK0660 or GSK03787) and exposed to 350 H2O2μM (B, C, D) Scatter dot plot and bars were presented for specific DNA fragmentation quantified in H9c2 at the end of the protocols. Data (mean±SD for each group of treatment) were normalized by values obtained with naive MSC/H2O2 and compared using Kruskal-Wallis (Dunn's post hoc test). (B): data were obtained using the condition 1 protocol. (C): the condition 2 protocol P was followed and p value was noted **** for p<0.0001 (MSC, n=16 independent cultures vs MSC/H2O2, n=18). For the data obtained with condition 3 protocol (D), p value was noted * for p=0.0436 (MSC+1 μM GSK0660/H2O2, n=6 vs MSC/H2O2, n=10).
H9c2, rattus norvegicus cardiomyocytes, were cultured in Dulbecco's modified Eagle's medium (DMEM), supplemented with 10% fetal bovine serum (FBS), 100 Units/mL penicillin, and 100 μg/mL streptomycin. To induce apoptosis, H9c2 were cultured in a minimal medium (without FBS) containing 350 μM of H2O2 during 4 hours. In order to evaluate the effect of MSCs on cardiomyocytes, a co-culture assay was designed using the transwell system to avoid cell-cell contact. 15,000 cardiomyocytes (lower part) were plated per well of a 12-well dish with or 15,000 MSC (upper part) in presence of 350 OA of H2O2. Two different protocols of co-culture were performed. In protocol 1, H9c2 and co-cultured MSC were exposed to H2O2(with serum deprivation). In protocol 2, H9c2 were exposed to H2O2 in minimal medium during 4 hours and after a wash, cells were co-cultured in complete medium with MSC. In protocol 3, H9c2 were cultured in presence of H2O2 during 4 hours in regular medium deprived in serum, which was continued for an extra 1 hour. Then the co-culture of H9c2 with MSC was performed in complete medium for 1 hour. At the end of all protocols, H9c2 were recovered for apoptosis and RT-qPCR analysis.
DNA fragmentation was quantified in vitro on cell lysates with an enzyme-linked immunosorbent assay kit (Cell Death ELISA; Roche Diagnostics) designed to measure of histone-complexed DNA fragments (mono- and oligonucleosomes) out of the cytoplasm of cells after the induction of apoptosis.
To determine the role of PPARβ/δ on MSC-induced protective effect on cardiomyocytes we designed and developed three protocols in order to mimic the stress received by MSC when transplanted into infarcted tissues. The first protocol consisted in co-culturing naive or primed MSC with H9c2 exposed to 350 μM of H2O2 for 4 hours using transwell. The second protocol consisted in exposing […] μM of H2O2 for 4 hours before to co-culture them with naive or primed MSC in a complete medium. The third protocol consisted in exposing H9c2 to 350 μM of H2O2 for 4 hours followed by serum deprivation for 1 hour before to co-culture them with naive or primed MSC in a complete medium (FIG. 7A).

[1] = tested on: cardiomyoblast cell line H9c2; details: H9c2 cardiomyoblasts; cited from earlier work
[2] = 3 mg/kg/day, rats; cited from earlier work
[3] = 3 mg/kg/day, mice; cited from earlier work
[4] = tested on: isolated perfused hearts from C57B16 mice; assay: Ex vivo Langendorff ischemia-reperfusion, infarct size, effect of preconditioning duration (Example 3); set-up: species or system mouse (C57BL/6); details: 4.10^5 cells/heart; for Decrease in infarct size: vs IR

O=C(NCCS(=O)(=O)c1ccc(C(F)(F)F)cn1)c1ccc(Cl)cc1 [GSK3787]
Specific DNA fragmentation in H9c2 (anti-apoptotic effect of MSC) (H9c2 cardiomyocytes; protocol 1: MSC pretreated 24 h with 1 μM, co-cultured with H9c2 under 350 μM H2O2 4 h): lose their capacity to protect cardiomyocytes from apoptosis
Specific DNA fragmentation in H9c2 (anti-apoptotic effect of MSC) (H9c2 cardiomyocytes; protocol 2: H9c2 exposed to 350 μM H2O2 4 h, then co-culture in complete medium with MSC pretreated with 1 μM): did not change MSC protective properties
Specific DNA fragmentation in H9c2 (anti-apoptotic effect of MSC) (H9c2 cardiomyocytes; protocol 3: H9c2 350 μM H2O2 4 h, serum deprivation 1 h, then co-culture in complete medium with MSC pretreated with 1 μM): lose their capacity to protect cardiomyocytes from apoptosis

Cc1cc(SCc2sc(-c3ccc(C(F)(F)F)cc3)nc2C)ccc1OCC(=O)O [GW501516]
Protection from H2O2-induced cell death [1]: protect the cardiomyoblast cell line H9c2 from H2O2-induced cell death
Carcinogenicity [2]: caused cancer to develop rapidly in several organs
Carcinogenicity [3]: caused cancer to develop rapidly in several organs
Infarct size, mean value ([4]; MSC preconditioned 24 h (1-day) with 0.1 μM, n=7): 37.4 % of LV mass
Decrease in infarct size ([4]; MSC preconditioned 24 h with 0.1 μM): 52.8%
Decrease in infarct size ([4]; MSC preconditioned 4 days (96 h) with 0.1 μM): 54.5%
Infarct size, mean value ([4]; MSC preconditioned 4 days with 0.1 μM, n=8): 36.05%
